Data: paper PMC7699524, “Assessing the Intestinal Permeability and Anti-Inflammatory Potential of Sesquiterpene Lactones from Chicory” (Nutrients, 2020)

How the values were obtained:
Caco-2 cells = assay: Permeability across Caco-2 monolayer (apical concentration by LC-MS); settings: Caco-2 monolayer
Method: For intestinal permeability assessments of pure SLs, Caco-2 cells were seeded in 12 mm Transwell® inserts (polyester membrane, 0.4 μm pore size, Corning Costar Corp., NY, USA) at a density of 1.0 × 10^5 cell/cm^2. Cells were allowed to grow and differentiate to a confluent monolayer for 21 days postseeding with medium change three times per week. This mimics the apical and basolateral sides of the intestinal mucosa. Before the permeability assay, cells were washed with Hank’s balanced salt solution (HBSS) (Gibco, Life Technologies, Paisley, UK), and pure SLs in HBSS were added to the apical side for 4 h at the noncytotoxic concentration of 10 μM, while the basolateral well was replaced by HBSS. The fluorescent marker fluorescein (2.7 µM) was used as control, having been submitted to the same protocol as the SLs. Cells were submitted to an orbital shaking of 125 rpm (Ohaus, Shanghai, China), and samples from the basolateral side were collected after 15 min, 30 min, and then every hour until the end of the assay, and each time the retrieved volume was replaced by fresh HBSS to maintain sink conditions. After the 4 h assay, both apical and basolateral contents were collected, the cells were washed with PBS followed by culture medium, and culture medium was added to both compartments for 24 h to assess monolayer recovery. All samples were stored at −80 °C until LC-MS analysis.
Transepithelial electrical resistance (TEER) of all monolayers was monitored before and during experiments, and 24 h after the assay, to ensure their integrity using an EVOM™ voltmeter (WPI, Berlin, Germany). Before each experiment, TEER was measured and only monolayers with a TEER value higher than 500 Ω cm^2 were used. Experiments were done in triplicate.
Ultra High Performance Liquid Chromatography (UHPLC) separations were performed with a Dionex U3000 UHPLC coupled with a U3000 Photo Diode Array (PDA) and an LTQ-Orbitrap XL Mass Spectrometry (MS) system (Thermo-Fisher Ltd., Hemel Hempstead, UK). The MS and PDA systems were tuned and calibrated according to the manufacturers recommended procedures. The UHPLC was operated under Xcalibur and Chromeleon software (Thermo-Fisher Ltd. UK). A flow rate of 300 µL/min was applied, the column and guard (Synergi C18 Hydro-RP 80 Ä, 150 × 2.0 mm, 4 µm particle size; Phenomenex Ltd. U.K.) were maintained at a temperature of 30 °C. The solvent system compositions were, A: HPLC grade water (J.T. Baker, Scientific Chemical Supplies Ltd. UK), and solvent B: HPLC grade acetonitrile (J.T. Baker, Scientific Chemical Supplies Ltd. UK), both acidified with 0.1% MS grade formic acid (Ultima, Fisher Scientific, UK). A sample injection volume of 10 µL was employed in partial-loop mode. The gradient program was as follows: hold 2% B 0–2 min, 2–5% B 2–5 min, 5–45% B 5–25 min, 45–100% B 25–35 min, hold 100% B 35–38 min, 100–2% B 38–39 min, hold 2% B 39–44 min. Autosampler syringe and line washes were performed with 2:8 HPLC grade water: acetonitrile (J.T. Baker, Scientific Chemical Supplies Ltd., UK). The HPLC column eluent was first monitored by the U3000 PDA detector where spectra were collected in wavelength/absorbance mode from 200–600 nm. Additionally, three channel set points were employed, Channel A 210 nm, Channel B 260 nm, Channel C 320 nm. Spectra were collected with a filter bandwidth of 8 nm and wavelength step of 1 nm, the scan rate was 5 Hz.
The UHPLC eluent was next transferred to a Thermo LTQ-Orbitrap XL mass spectrometry system operated under Xcalibur (Thermo-Fisher Ltd. UK). For the first two minutes of analysis the UHPLC eluent was diverted to waste, from two to 39 min the eluent was directed to the MS detector, before being diverted back to waste between 39–44 min. Mass spectra were collected in centroid mode with a primary full scan event (m/z 100–1000) at a mass resolution of 30,000 (FWHM defined at m/z 400) within the Fourier Transform (FT) detector.

calcineurin-Crz1 pathway = assay: β-Galactosidase CDRE-lacZ yeast reporter assay of Crz1 activation; type: cell-based, S. cerevisiae; settings: Saccharomyces cerevisiae
Method: Cultures at OD600= 0.5 ± 0.05 were diluted to OD600= 0.1 ± 0.01, transferred to 96-well microplate and challenged with the highest nontoxic concentration previously determined for each compound to investigate their putative inhibitory effect towards the calcineurin-responsive zinc finger (Crz1) activation. Measurements of β-galactosidase activity driven by the calcineurin-dependent response element (CDRE) regulated lacZ reporter gene allowed the quantitative assessment of the capacity of each compound to inhibit the activation of Crz1. FK506 (Cayman Chemicals, Ann Arbor, MI, USA) was used as a positive control at a final concentration of 12.5 μM. After 90 min of incubation with the respective compounds at 30 °C under orbital shaking, MnCl2 (Merck, Saint Louis, MO, USA) was added at a final concentration of 3 mM. After 90 min of incubation under the same conditions, OD600 of cultures were recorded, 10 μL of cell suspensions were transferred to a new 96-well plate followed by addition of 20 μL Y-PER cell lysis reagent (ThermoFisher Scientific), and the plates were incubated for 20 min at 37 °C without agitation. 240 μL of LacZ buffer (8.5 g/L Na2HPO4 (ROTH), 5.5 g/L NaH2PO4.H2O (Merck), 0.75 g/L KCl (Panreac), 0.246 g/L MgSO4.7H2O (Merck) containing […] o-nitrophenyl β-D-galactopyranoside (ONPG) (Sigma–Aldrich®—Poole, Dorset, UK) was added to each well, and plates were incubated at 30 °C for 2 h. The OD420 and OD550 were monitored using a Biotek Power Wave XS Microplate Spectrophotometer (Biotek® Instruments, Winooski, VT, USA). The results were expressed as Miller units (MU), applying the following equation, where V = volume of culture assayed in mL; t = reaction time in minutes: Miller unit = 1000 × (OD420 − 1.75 × OD550)/(t × V × OD600)(1)

Crz1-GFP = assay: Fluorescence microscopy of Crz1-GFP nuclear accumulation; type: cell-based, S. cerevisiae; settings: 3.6 µM, then 3 mM MnCl2; YAA3 cells; MnCl2 only 55.6%
Method: YAA3 cells were treated with 3.6 µM of 11β,13-dihydrolactucin or 12.5 µM of FK506 for 90 min, followed by incubation with or without 3 mM MnCl2 for further 90 min. On the last 10 min of incubation, 10 µg/mL of Hoechst 33,342 (Sigma) nuclear dye were added. Cells were washed and resuspended in 5 µL of 1,4-Diazabicyclo[2.2.2]octane (DABCO, triethylenediamine) DABCO solution (200 mM DABCO in 75% (v/v) glycerol, 25% (v/v) PBS) (Sigma-Aldrich). The preparations were monitored for GFP fluorescence as previously described using a Zeiss Imager Z2 (Zeiss, Germany) fluorescence microscope. Photographs were taken with an Axiocam 506 mono (Zeiss). Three images were taken and analyzed for each sample, each one containing ≈ 600 individual cells. Images were analyzed using Fiji-ImageJ 1.53f (NIH, Bethesda, MD, USA).

[1] = system: Crz1 target genes PMR1 and GSC2; assay: qRT-PCR of Crz1 target genes; type: cell-based, S. cerevisiae; settings: 3.6 µM, 3 mM MnCl2, qPCR
Method: The qRT-PCR analyses were performed as previously described. Briefly, total RNA was extracted using the RNeasy Mini kit (QIAGEN). After cleaning, 4 μg of total RNA was used for reverse-transcription with SuperScript™ II Reverse Transcriptase (Invitrogen). The qRT-PCR was performed in a QuantStudio™ 5 (Applied Biosystems), using SensiFAST™ SYBR Lo-ROX Kit (Bioline) to evaluate expression of the PMR1 (‘5-[…]-3′; 5′-[…]-3′) (GeneID: 852709), and GSC2 (5′-[…]-3′; 5′-[…]-3′) (GeneID: 852920) genes. Both ACT1 (5′-GATCATTGCTCCTCCAGAA-3′; 5′-[…]-3′) and PDA1 (5′-[…]-3′; 5′-[…]-3′) were used as reference genes. The results were expressed as relative mRNA expression levels relative to activation condition (mRNA levels a.u.) of at least three independent biological replicates ± SEM.

## CC1=C2C(=O)C=C(CO)C2C2OC(=O)C(C)C2C(O)C1 (stereo not drawn) [11β,13-dihydrolactucin]
Caco-2 cells; 10 µM apical, 4 h vs t = 0 h
  % of Decrease in SL Concentration in the Apical Side (t = 4h): 8.7%
Caco-2 cells; LC-MS
  SL conjugates with cysteine in the apical side after 4 h: not detected
Caco-2 cells; SL added at 10 µM apical, after 4 h
  Concentration of SL (Apical Side) t = 4 h: 8.3 ± 1.4 µM
Caco-2 cells; SL added at 10 µM apical, before experiment
  Concentration of SL (Apical Side) t = 0 h: 9.1 ± 1.3 µM
calcineurin-Crz1 pathway; read-out: Calcineurin-Crz1 Inhibition (%) ± SD, 12.5 µM, MnCl2 3 mM activation, strain YAA5
  inhibition at 12.5 µM: 43 ± 8%
calcineurin-Crz1 pathway; read-out: IC50 for Crz1 inhibition
  IC50: 2350 ± 1450 nM
calcineurin-Crz1 pathway; read-out: Inhibition of Crz1 activation (dose response assay), 3.6 µM, MnCl2 activation
  inhibition at 3.6 µM: ≤ 54%
Crz1-GFP
  Percentage of cells with nuclear Crz1-GFP: 21%
[1]
  GSC2 mRNA expression: downregulated
  PMR1 mRNA expression: downregulated
